Each compound was assayed against T1, hGPR120 (Homo sapiens, UniProt Q5NUL3) (assay: Measurement of activity of GPR120 agonist (cell-based calcium fluorescence assay)). Details: CHO-K1 cells expressing Ga16 and hGPR120, Calcium 5 dye fluorescence; activity class; read-out: EC50.
T1 construct: expressed in transfected cells; host or cells: CHO-K1
T1 sequence (Q5NUL3 1-361): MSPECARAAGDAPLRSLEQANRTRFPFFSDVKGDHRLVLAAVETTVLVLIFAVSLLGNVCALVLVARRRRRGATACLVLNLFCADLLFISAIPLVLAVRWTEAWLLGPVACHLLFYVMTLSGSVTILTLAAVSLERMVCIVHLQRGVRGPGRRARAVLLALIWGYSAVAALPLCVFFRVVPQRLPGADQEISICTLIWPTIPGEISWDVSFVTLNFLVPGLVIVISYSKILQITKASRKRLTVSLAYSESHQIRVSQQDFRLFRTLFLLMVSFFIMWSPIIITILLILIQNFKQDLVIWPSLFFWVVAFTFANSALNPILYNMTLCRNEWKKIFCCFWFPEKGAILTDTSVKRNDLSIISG
Method in brief: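 CHO-K1 cells co-expressing Gα16 and hGPR120, plated 18 h, loaded with Calcium 5 dye for 1 h at 37 °C, then given serially diluted agonists (final 0.5% DMSO). Fluorescence increase expressed as relative % of the 1% DMSO-only signal.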
`CC(C)Oc1ncccc1-c1cc(F)c(OCCCCC(=O)O)c(F)c1` [Example 213, 5-[2,6-difluoro-4-(2-isopropoxy-pyridin-3-yl)-phenoxy]-pentanoic acid] showed an EC50 of under 200 nM. In the case of `CC(C)Sc1cccc(-c2ccc(OCCCC(=O)O)c(Cl)c2)n1` [Example 4, 4-[2-chloro-4-(6-isopropylsulfanyl-2-pyridyl)phenoxy]butyric acid], the EC50 is reported as 200 to 2000 nM. In the case of `CCCOc1cccc(-c2cc(F)c(SCCCC(=O)O)c(F)c2)n1` [Example 136, 4-[2,6-difluoro-4-(6-propoxy-pyridin-2-yl)-phenylsulfanyl]-butyric acid], the EC50 is reported as under 200 nM. `O=C(O)CCCSc1ccc(-c2cccc(OC3CCCC3)n2)cc1` [Example 129, 4-[4-(6-cyclopentyloxy-pyridin-2-yl)-phenylsulfanyl]-butyric acid] was tested, and the EC50 was 200 to 2000 nM. `O=C(O)CCCOc1c(F)cc(-c2cccnc2CC2CCCC2)cc1F` [Example 108, 4-[4-[2-(cyclopentylmethyl)-3-pyridyl]-2,6-difluoro-phenoxy]butanoic acid] showed an EC50 of under 200 nM. With `CC(C)Sc1ncccc1-c1cc(F)c(OCCCCC(=O)O)c(F)c1` [Example 235, 5-[2,6-difluoro-4-(2-isopropylsulfanyl-3-pyridyl)phenoxy]pentanoic acid] the EC50 was under 200 nM. `O=C(O)CCCOc1c(F)cc(-c2ccccc2NC2CCCC2)cc1F` [Example 79, 4-[4-[2-(cyclopentylamino)phenyl]-2,6-difluoro-phenoxy]butanoic acid] was tested, and the EC50 was under 200 nM. For `CC(C)Sc1ncccc1-c1cc(F)c(OCCCC(=O)O)c(F)c1` [Example 41, 4-[2,6-difluoro-4-(2-isopropylsulfanyl-pyridin-3-yl)-phenoxy]-butyric acid], the EC50 was 200 to 2000 nM. In the case of `O=C(O)CCCSc1c(F)cc(-c2cccnc2OC2CCC2)cc1F` [Example 144, 4-[4-(2-cyclobutoxy-pyridin-3-yl)-2,6-difluoro-phenylsulfanyl]-butyric acid], the EC50 is reported as under 200 nM. Work on `CCCSc1cccc(-c2cc(F)c(OCCCC(=O)O)c(F)c2)n1` [Example 21, 4-[2,6-difluoro-4-(6-propylsulfanyl-2-pyridyl)phenoxy]butyric acid] yielded an EC50 of under 200 nM. Compound `CC(C)Oc1ncccc1-c1ccc(OCCCCC(=O)O)c(F)c1` [Example 264, 5-[2-fluoro-4-(2-isopropoxy-pyridin-3-yl)-phenoxy]-pentanoic acid] has an EC50 of 200 to 2000 nM. Compound `CC(C)(C)Sc1ncccc1-c1cc(F)c(OCCCC(=O)O)c(F)c1` [Example 63, 4-[4-(2-tert-butylsulfanyl-pyridin-3-yl)-2,6-difluoro-phenoxy]-butyric acid] has an EC50 of 2000 to 20000 nM. With `COc1ncccc1-c1cc(F)c(OCCCC(=O)O)c(F)c1` [Example 268, 4-[2,6-difluoro-4-(2-methoxy-pyridin-3-yl)-phenoxy]-butyric acid] the EC50 was 200 to 2000 nM. Work on `O=C(O)CCCOc1c(F)cc(-c2cccnc2OCCF)cc1F` [Example 32, 4-{2,6-difluoro-4-[2-(2-fluoro-ethoxy)-pyridin-3-yl]-phenoxy}-butyric acid] yielded an EC50 of over 20000 nM. `O=C(O)CCCCCOc1c(F)cc(-c2cccnc2OCC2CCC2)cc1F` [Example 272, 6-[4-[2-(cyclobutylmethoxy)-3-pyridyl]-2,6-difluoro-phenoxy]hexanoic acid] showed an EC50 of under 200 nM. `O=C(O)CCCOc1c(F)cc(-c2cccnc2OCC2CCCC2)cc1F` [Example 229, 4-[4-(2-cyclopentylmethoxy-pyridin-3-yl)-2,6-difluoro-phenoxy]-butyric acid] showed an EC50 of under 200 nM. `O=C(O)CCCOc1cc(F)c(-c2cccc(SC3CCC3)n2)cc1F` [Example 62, 4-[4-(6-cyclobutylsulfanyl-pyridin-2-yl)-2,5-difluoro-phenoxy]-butyric acid] showed an EC50 of 200 to 2000 nM. With `CC(CCC(=O)O)Sc1c(F)cc(-c2cccnc2OC2CCCC2)cc1F` (stereo not shown) [Example 201, 4-[4-(2-cyclopentyloxy-pyridin-3-yl)-2,6-difluoro-phenylsulfanyl]-pentanoic acid] the EC50 was under 200 nM. For `CC(CCC(=O)O)Oc1ccc(-c2cccnc2SC2CCC2)cn1` (stereo not shown) [Example 30, 4-[[5-(2-cyclobutylsulfanyl-3-pyridyl)-2-pyridyl]oxy]pentanoic acid], the EC50 was over 20000 nM. Compound `O=C(O)CCCCCOc1c(F)cc(-c2cccnc2SC2CCC2)cc1F` [Example 274, 6-[4-(2-cyclobutylsulfanyl-3-pyridyl)-2,6-difluoro-phenoxy]hexanoic acid] has an EC50 of under 200 nM. Compound `COc1ccc(-c2ccc(SCCCC(=O)O)c(F)c2)c(OC2CCCC2)c1` [Example 183, 4-(2′-cyclopentyloxy-3-fluoro-4′-methoxy-biphenyl-4-ylsulfanyl)-butyric acid] has an EC50 of 200 to 2000 nM. For `CCCNc1cccc(-c2cc(F)c(OCCCC(=O)O)c(F)c2)c1` [Example 94, 4-[2,6-difluoro-4-[3-(propylamino)phenyl]phenoxy]butanoic acid], the EC50 was 200 to 2000 nM. Work on `CN(C)C1CCN(c2cccc(-c3cc(F)c(OCCCC(=O)O)c(F)c3)n2)C1` (stereo not shown) [Example 212, 4-[4-[6-[3-(dimethylamino)pyrrolidin-1-yl]-2-pyridyl]-2,6-difluoro-phenoxy]butanoic acid] yielded an EC50 of over 20000 nM. `O=C(O)CCCSc1ccc(-c2cccnc2N2CCCC2)cc1F` [Example 173, 4-[2-fluoro-4-(2-pyrrolidin-1-yl-pyridin-3-yl)-phenylsulfanyl]-butyric acid] showed an EC50 of 200 to 2000 nM. In the case of `O=C(O)CCCOc1ccc(-c2cccnc2SCC2CC2)cc1` [Example 49, 4-[4-(2-cyclopropylmethylsulfanyl-pyridin-3-yl)-phenoxy]-butyric acid], the EC50 is reported as 200 to 2000 nM. `O=C(O)CCCCOc1ccc(-c2cccnc2SC2CCC2)cc1F` [Example 266, 5-[4-(2-cyclobutylsulfanyl-pyridin-3-yl)-2-fluoro-phenoxy]-pentanoic acid] was tested, and the EC50 was under 200 nM. `Cc1ccc(OC2CCCC2)c(-c2ccc(SCCCC(=O)O)c(F)c2)c1F` [Example 193, 4-(6′-cyclopentyloxy-3,2′-difluoro-3′-methyl-biphenyl-4-ylsulfanyl)-butyric acid] showed an EC50 of 200 to 2000 nM. In the case of `CC(C)Nc1ncccc1-c1cc(F)c(SCCCC(=O)O)c(F)c1` [Example 250, 4-[2,6-difluoro-4-(2-isopropylamino-pyridin-3-yl)-phenylsulfanyl]-butyric acid], the EC50 is reported as 200 to 2000 nM. `CC(C)Oc1ncccc1-c1ccc(SCCCCC(=O)O)cc1` [Example 255, 5-[4-(2-isopropoxy-pyridin-3-yl)-phenylsulfanyl]-pentanoic acid] showed an EC50 of 200 to 2000 nM. With `CCCSc1ncccc1-c1ccc(OCCCC(=O)O)cc1` [Example 51, 4-[4-(2-propylsulfanyl-pyridin-3-yl)-phenoxy]-butyric acid] the EC50 was under 200 nM. In the case of `CC(C)Sc1ncccc1-c1ccc(OCCCC(=O)O)cc1` [Example 38, 4-[4-(2-isopropylsulfanyl-pyridin-3-yl)-phenoxy]-butyric acid], the EC50 is reported as 200 to 2000 nM. Compound `CC(C)Nc1ncccc1-c1ccc(SCCCC(=O)O)c(F)c1` [Example 174, 4-[2-fluoro-4-(2-isopropylamino-pyridin-3-yl)-phenylsulfanyl]-bytyric acid] has an EC50 of 200 to 2000 nM. In the case of `Cc1cnc(OC(C)C)c(-c2ccc(SCCCC(=O)O)c(F)c2)c1` [Example 187, 4-[2-fluoro-4-(2-isopropoxy-5-methyl-pyridin-3-yl)-phenylsulfanyl]-butyric acid], the EC50 is reported as under 200 nM. `CC(C)Oc1ccc(F)cc1-c1ccc(SCCCC(=O)O)c(F)c1` [Example 188, 4-(3,5′-difluoro-2′-isopropoxy-biphenyl-4-ylsulfanyl)-butyric acid] was tested, and the EC50 was under 200 nM. `CC(C)Oc1cccc(-c2cc(F)c(SCCCC(=O)O)c(F)c2)n1` [Example 137, 4-[2,6-difluoro-4-(6-isopropoxy-pyridin-2-yl)-phenylsulfanyl]-butyric acid] was tested, and the EC50 was under 200 nM. Work on `O=C(O)CCCOc1c(F)cc(-c2cccnc2OCCN2CC2)cc1F` [Example 218, 4-[4-[2-[2-(aziridin-1-yl)ethoxy]-3-pyridyl]-2,6-difluoro-phenoxy]butanoic acid] yielded an EC50 of over 20000 nM. For `O=C(O)CCCOc1ccc(-c2cccc(OC3CCC3)c2)nc1` [Example 35, 4-[[6-[3-(cyclobutoxy)phenyl]-3-pyridyl]oxy]butyric acid], the EC50 was 200 to 2000 nM. `O=C(O)CCCOc1ccc(-c2ccccc2Oc2ccccc2)cc1` [Example 37, 4-(2′-phenoxy-biphenyl-4-yloxy)-butyric acid] gave an EC50 of under 200 nM. In the case of `O=C(O)C1CC1COc1c(F)cc(-c2cccnc2SC2CCC2)cc1F` (stereo not shown) [Example 60, 2-[4-(2-cyclobutylsulfanyl-pyridin-3-yl)-2,6-difluoro-phenoxymethyl]-cyclopropanecarboxylic acid], the EC50 is reported as under 200 nM. Work on `O=C(O)CCCCSc1ccc(-c2cccnc2SC2CCCC2)cc1` [Example 258, 5-[4-(2-cyclopentylsulfanyl-pyridin-3-yl)-phenylsulfanyl]-pentanoic acid] yielded an EC50 of under 200 nM. `CC(CCC(=O)O)Sc1c(F)cc(-c2cccnc2SC2CCCC2)cc1F` (stereo not shown) [Example 202, 4-[4-(2-cyclopentylsulfanyl-pyridin-3-yl)-2,6-difluoro-phenylsulfanyl]-pentanoic acid] was tested, and the EC50 was under 200 nM. `O=C(O)CCCOc1ccc(-c2cccc(OC3CCCC3)c2)nc1` [Example 36, 4-[[6-[3-(cyclopentoxy)phenyl]-3-pyridyl]oxy]butyric acid] gave an EC50 of 200 to 2000 nM. `CN(c1ccccc1)c1cccc(-c2cc(F)c(OCCCC(=O)O)c(F)c2)n1` [Example 17, 4-[2,6-difluoro-4-[6-(N-methylanilino)-2-pyridyl]phenoxy]butyric acid] showed an EC50 of 200 to 2000 nM.
